# Laboratory results published in article PMC12474041 (Toxins, 2025).
# Read-outs that look alike come from different tables or passages of the source. Bridge positions count the residues as written; N and C are the ends.
# How the values were obtained:
# [1] = test system: N-type (Cav2.2) calcium channels; details: cited from earlier work
# [2] = test system: G-protein-coupled GABAB receptors; details: cited from earlier work
# [3] = test system: patients with NDM; details: cited from earlier work
# [4] = test system: DIII S6 and DIV S6 of the sodium channel pore domain; details: cited from earlier work
# [5] = cited from earlier work
# [6] = target: T1, Nav1.4 (Homo sapiens, UniProt P35499); experiment: Whole-cell patch clamp, Nav1.4 in transfected HEK cells
# Experimental: (§1) Plasmids containing sodium channels or potassium channels were transfected into HEK cells (gifted from Rong’s lab at Hunan Normal University, Changsha, China [32]) using Lipofectamine 2000. After 24 h, whole-cell patch clamp recordings were made at room temperature. Using a drawn borosilicate glass electrode (resistance 3–5 MΩ) filled with intracellular solution, the current of the transfected cells was assessed using the MultiClamp 700B amplifier (Molecular Devices, Sunnyvale, America) and pCLAMP 10 software. We set the clamping voltage to −80 mV and the stimulation voltage to 0 mV.
# (§2) The extracellular solution used to record the sodium ion channels included the following components (in mM): 150 NaCl, 2 KCl, 1.5 CaCl2, 1 MgCl2, and 10 HEPES, and the pH was adjusted to 7.4 with NaOH. To record the potassium ion channel, the extracellular solution contained (in mM) 140 NaCl, 2 KCl, 1.5 CaCl2, 1 MgCl2, and 10 HEPES, and the pH was adjusted to 7.4 using NaOH. The intracellular solution that recorded the sodium ion channel currents contained 10 mM NaCl, 10 mM EGTA, 135 mM CsCl, and 10 mM HEPES, and the pH was adjusted to 7.3 with CsOH. To record the potassium ion channel currents, the intracellular solution contained 10 mM EGTA, 140 mM KCl, 2.5 mM MgCl2, and 10 mM HEPES, and the pH was adjusted to 7.4 using NaOH.
# [7] = test system: Kv1.3; experiment: Whole-cell patch clamp, Kv1.3 in transfected HEK cells; details: 50 μM, room temperature, currents evoked at 0 mV, held at −80 mV
# Experimental: as §1, §2
# [8] = test system: Kv4.2; experiment: Whole-cell patch clamp, Kv4.2 in transfected HEK cells; details: 50 μM, room temperature, currents evoked at 0 mV, held at −80 mV
# Experimental: as §1, §2
# [9] = test system: Nav1.7; experiment: Whole-cell patch clamp, Nav1.7 in transfected HEK cells; details: room temperature, currents evoked at 0 mV, held at −80 mV
# Experimental: as §1, §2
# [10] = test system: Kv1.4; experiment: Whole-cell patch clamp, Kv1.4 in transfected HEK cells; details: 50 μM, room temperature, currents evoked at 0 mV, held at −80 mV
# Experimental: as §1, §2
# [11] = test system: Nav1.5; experiment: Whole-cell patch clamp, Nav1.5 in transfected HEK cells; details: room temperature, currents evoked at 0 mV, held at −80 mV
# Experimental: as §1, §2
# [12] = test system: Nav1.5; details: cited from earlier work
# [13] = target: T1, Nav1.4; parameters: expressed in transfected cells; host or cells: HEK cells; details: cited from earlier work
# T1 sequence (P35499 whole entry): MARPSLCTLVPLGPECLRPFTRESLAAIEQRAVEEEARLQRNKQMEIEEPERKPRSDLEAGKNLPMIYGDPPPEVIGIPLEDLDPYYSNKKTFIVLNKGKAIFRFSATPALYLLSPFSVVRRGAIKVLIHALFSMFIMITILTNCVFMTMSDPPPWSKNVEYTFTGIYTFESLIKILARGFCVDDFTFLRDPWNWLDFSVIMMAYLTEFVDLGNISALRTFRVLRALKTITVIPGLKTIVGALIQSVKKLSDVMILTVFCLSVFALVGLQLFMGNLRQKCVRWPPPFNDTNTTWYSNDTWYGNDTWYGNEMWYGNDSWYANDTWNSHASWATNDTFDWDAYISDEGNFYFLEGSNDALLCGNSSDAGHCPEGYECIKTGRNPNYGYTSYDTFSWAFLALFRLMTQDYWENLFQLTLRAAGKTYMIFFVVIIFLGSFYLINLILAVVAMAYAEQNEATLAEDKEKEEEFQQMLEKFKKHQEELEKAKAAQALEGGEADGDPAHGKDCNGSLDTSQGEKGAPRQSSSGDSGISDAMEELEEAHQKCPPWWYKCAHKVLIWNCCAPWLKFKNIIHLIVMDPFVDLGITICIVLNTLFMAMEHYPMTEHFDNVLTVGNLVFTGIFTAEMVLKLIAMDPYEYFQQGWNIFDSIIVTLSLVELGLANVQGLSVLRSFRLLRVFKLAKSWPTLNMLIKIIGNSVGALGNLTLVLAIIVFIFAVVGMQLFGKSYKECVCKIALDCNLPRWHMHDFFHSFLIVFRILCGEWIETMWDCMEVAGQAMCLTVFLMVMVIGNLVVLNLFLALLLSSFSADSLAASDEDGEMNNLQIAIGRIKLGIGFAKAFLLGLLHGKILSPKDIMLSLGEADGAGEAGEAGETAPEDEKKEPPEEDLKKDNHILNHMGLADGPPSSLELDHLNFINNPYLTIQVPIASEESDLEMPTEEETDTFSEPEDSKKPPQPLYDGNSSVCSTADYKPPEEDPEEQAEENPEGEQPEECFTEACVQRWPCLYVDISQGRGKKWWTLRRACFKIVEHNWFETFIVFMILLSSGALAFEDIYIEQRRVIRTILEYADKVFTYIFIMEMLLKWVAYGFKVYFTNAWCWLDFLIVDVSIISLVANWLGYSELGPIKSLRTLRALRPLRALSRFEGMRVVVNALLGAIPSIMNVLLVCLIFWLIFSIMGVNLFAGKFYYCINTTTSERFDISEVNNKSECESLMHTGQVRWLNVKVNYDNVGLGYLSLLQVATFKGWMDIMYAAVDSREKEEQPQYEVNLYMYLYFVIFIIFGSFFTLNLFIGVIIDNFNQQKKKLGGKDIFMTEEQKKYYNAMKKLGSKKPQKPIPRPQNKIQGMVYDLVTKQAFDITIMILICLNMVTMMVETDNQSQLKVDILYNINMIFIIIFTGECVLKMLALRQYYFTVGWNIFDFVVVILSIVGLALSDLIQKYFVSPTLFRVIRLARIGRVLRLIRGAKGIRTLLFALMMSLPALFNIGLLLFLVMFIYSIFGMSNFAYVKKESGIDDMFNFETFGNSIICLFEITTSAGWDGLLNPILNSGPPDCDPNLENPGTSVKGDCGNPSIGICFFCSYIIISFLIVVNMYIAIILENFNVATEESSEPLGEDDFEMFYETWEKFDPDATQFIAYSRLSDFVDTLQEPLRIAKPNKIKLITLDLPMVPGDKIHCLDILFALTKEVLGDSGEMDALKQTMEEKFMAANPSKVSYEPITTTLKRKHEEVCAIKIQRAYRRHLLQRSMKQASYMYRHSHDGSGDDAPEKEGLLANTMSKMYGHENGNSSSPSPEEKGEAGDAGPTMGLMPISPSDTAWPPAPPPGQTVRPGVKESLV
compound,measurement,setting,value
Vc1.1,direct binding to Cav2.2,[1],do not directly bind
same,inhibition of Cav2.2 channel function,[1],indirectly inhibit channel function
same,binding to GABAB receptors,[2],binding to G-protein-coupled GABAB receptors
Cc1cccc(C)c1OCC(C)N (stereo not drawn) [mexiletine],effect on muscle stiffness,[3]; patients with NDM,improving muscle stiffness in patients with NDM
same,binding site on sodium channel,[4],binds to DIII S6 and DIV S6 of the sodium channel pore domain
same,side effects,[5]; sensitivity of different patients varies greatly,indigestion
"GEFINGDCELPKVVGPCRAGFRRYYYNSSSKRCEKFIYGGCRGNANNFHTLEECEKVCGVRS (disulfide 8-58, 17-41, 33-54 (inferred)) [Avd3i, U-actitoxin-Avd3i]",IC50,[6],25400 nM
same,inhibition of Nav1.4 channel at 50.0 μM,"[6]; 50.0 μM perfusion, transfected HEK cells, room temperature, holding −80 mV, stimulation 0 mV",suppressed
same,concentration dependence of Nav1.4 inhibition,"[6]; transfected HEK cells, whole-cell patch clamp",concentration-dependent manner
same,effect on Kv1.3,[7],no effect
same,effect on Kv4.2,[8],no effect
same,effect on Nav1.7,[9],did not inhibit
same,effect on Kv1.4,[10],no effect
same,effect on Nav1.5,[11],did not inhibit
O=C(NCC1CCCCN1)c1cc(OCC(F)(F)F)ccc1OCC(F)(F)F (stereo not drawn) [flecainide],efficacy in patients with NDM,[3],effective in some patients with NDM
ATX-II,EC50,[12],49 nM
same,EC50,[13],109 nM
"Cc1cccc(C)c1NC(=O)C(C)N (stereo not drawn) [Tocainide, tocainide]",side effects,[5]; can be fatal,"anemia, agranulocytosis, pulmonary fibrosis, interstitial pneumonia, and pulmonary edema"
